Laboratory results reported in ChEMBL document CHEMBL4507290 (2021).

Legend:
[1] = target: Activin receptor type-1B (Homo sapiens) (UniProt P36896); conditions: Compound concentration 1000.0 nM
[2] = target: Cyclin-G-associated kinase (Homo sapiens) (UniProt O14976); conditions: Compound concentration 1000.0 nM
[3] = target: Insulin-like growth factor 1 receptor (Homo sapiens) (UniProt P08069); conditions: Compound concentration 1000.0 nM
[4] = target: Myotonin-protein kinase (Homo sapiens) (UniProt Q09013); conditions: Compound concentration 1000.0 nM
[5] = target: Glycogen synthase kinase-3 alpha (Homo sapiens) (UniProt P49840); conditions: Compound concentration 1000.0 nM
[6] = target: Tyrosine-protein kinase Lyn (Homo sapiens) (UniProt P07948); conditions: Compound concentration 1000.0 nM
[7] = target: Activin receptor type-2B (Homo sapiens) (UniProt Q13705); conditions: Compound concentration 1000.0 nM
[8] = test system: Phosphatidylinositol 4,5-bisphosphate 3-kinase catalytic subunit alpha isoform (Homo sapiens), P42336 [E545A]; conditions: Compound concentration 1000.0 nM
[9] = target: Serine/threonine-protein kinase ULK1 (Homo sapiens) (UniProt O75385); conditions: Compound concentration 1000.0 nM
[10] = target: Dual specificity mitogen-activated protein kinase kinase 5 (Homo sapiens) (UniProt Q13163); conditions: Compound concentration 1000.0 nM
[11] = target: Muscarinic acetylcholine receptor M5 (Homo sapiens) (UniProt P08912); conditions: Compound concentration 10.0 uM
[12] = test system: Tyrosine-protein kinase ABL1 (Homo sapiens), P00519 [H396P]; conditions: Compound concentration 1000.0 nM
[13] = target: Cyclin-dependent kinase 7 (Homo sapiens) (UniProt P50613); conditions: Compound concentration 1000.0 nM
[14] = target: Ribosomal protein S6 kinase alpha-1 (Homo sapiens) (UniProt Q15418); conditions: Compound concentration 1000.0 nM
[15] = target: Serine/threonine-protein kinase pim-3 (Homo sapiens) (UniProt Q86V86); conditions: Compound concentration 1000.0 nM
[16] = target: Serine/threonine-protein kinase 32A (Homo sapiens) (UniProt Q8WU08); conditions: Compound concentration 1000.0 nM
[17] = target: Phosphatidylinositol 4,5-bisphosphate 3-kinase catalytic subunit delta isoform (Homo sapiens) (UniProt O00329); conditions: Compound concentration 1000.0 nM
[18] = target: Serine/threonine-protein kinase mTOR (Homo sapiens) (UniProt P42345); conditions: Compound concentration 1000.0 nM
[19] = target: Ephrin type-A receptor 5 (Homo sapiens) (UniProt P54756); conditions: Compound concentration 1000.0 nM
[20] = target: Cyclin-dependent kinase-like 3 (Homo sapiens) (UniProt Q8IVW4); conditions: Compound concentration 1000.0 nM
[21] = target: Ribosomal protein S6 kinase alpha-5 (Homo sapiens) (UniProt O75582); conditions: Compound concentration 1000.0 nM
[22] = target: Serine/threonine-protein kinase TNNI3K (Homo sapiens) (UniProt Q59H18); conditions: Compound concentration 1000.0 nM
[23] = target: Platelet-derived growth factor receptor beta (Homo sapiens) (UniProt P09619); conditions: Compound concentration 1000.0 nM
[24] = target: Calcium/calmodulin-dependent protein kinase type II subunit alpha (Homo sapiens) (UniProt Q9UQM7); conditions: Compound concentration 1000.0 nM
[25] = target: Membrane-associated tyrosine- and threonine-specific cdc2-inhibitory kinase (Homo sapiens) (UniProt Q99640); conditions: Compound concentration 1000.0 nM
[26] = target: Serine/threonine-protein kinase tousled-like 2 (Homo sapiens) (UniProt Q86UE8); conditions: Compound concentration 1000.0 nM
[27] = target: Serine/threonine-protein kinase MAK (Homo sapiens) (UniProt P20794); conditions: Compound concentration 1000.0 nM
[28] = target: Dual specificity protein kinase TTK (Homo sapiens) (UniProt P33981); conditions: Compound concentration 1000.0 nM
[29] = target: 5-hydroxytryptamine receptor 2A (Homo sapiens) (UniProt P28223); conditions: Compound concentration 10.0 uM
[30] = target: Focal adhesion kinase 1 (Homo sapiens) (UniProt Q05397); conditions: Compound concentration 1000.0 nM
[31] = target: RAC-gamma serine/threonine-protein kinase (Homo sapiens) (UniProt Q9Y243); conditions: Compound concentration 1000.0 nM
[32] = target: Calcium/calmodulin-dependent protein kinase type IV (Homo sapiens) (UniProt Q16566); conditions: Compound concentration 1000.0 nM
[33] = test system: Mast/stem cell growth factor receptor Kit (Homo sapiens), P10721 [A829P]; conditions: Compound concentration 1000.0 nM
[34] = target: Serine/threonine-protein kinase DCLK2 (Homo sapiens) (UniProt Q8N568); conditions: Compound concentration 1000.0 nM
[35] = target: Tyrosine-protein kinase JAK2 (Homo sapiens) (UniProt O60674); conditions: Compound concentration 1000.0 nM
[36] = test system: Receptor-type tyrosine-protein kinase FLT3 (Homo sapiens), P36888 [D835Y]; conditions: Compound concentration 1000.0 nM
[37] = target: Casein kinase I isoform gamma-2 (Homo sapiens) (UniProt P78368); conditions: Compound concentration 1000.0 nM
[38] = test system: eIF-2-alpha kinase GCN2 (Homo sapiens), Q9P2K8 [S808G]; conditions: Compound concentration 1000.0 nM
[39] = target: Testis-specific serine/threonine-protein kinase 1 (Homo sapiens) (UniProt Q9BXA7); conditions: Compound concentration 1000.0 nM
[40] = target: Microtubule-associated serine/threonine-protein kinase 1 (Homo sapiens) (UniProt Q9Y2H9); conditions: Compound concentration 1000.0 nM
[41] = target: Serine/threonine-protein kinase SIK2 (Homo sapiens) (UniProt Q9H0K1); conditions: Compound concentration 1000.0 nM
[42] = target: Ephrin type-B receptor 6 (Homo sapiens) (UniProt O15197); conditions: Compound concentration 1000.0 nM
[43] = target: Macrophage colony-stimulating factor 1 receptor (Homo sapiens) (UniProt P07333); conditions: Compound concentration 1000.0 nM
[44] = test system: Phosphatidylinositol 4,5-bisphosphate 3-kinase catalytic subunit alpha isoform (Homo sapiens), P42336 [M1043I]; conditions: Compound concentration 1000.0 nM
[45] = target: 5-hydroxytryptamine receptor 7 (Homo sapiens) (UniProt P34969); conditions: Compound concentration 10.0 uM
Chain of 5-hydroxytryptamine receptor 7 (Homo sapiens) (P34969 whole entry): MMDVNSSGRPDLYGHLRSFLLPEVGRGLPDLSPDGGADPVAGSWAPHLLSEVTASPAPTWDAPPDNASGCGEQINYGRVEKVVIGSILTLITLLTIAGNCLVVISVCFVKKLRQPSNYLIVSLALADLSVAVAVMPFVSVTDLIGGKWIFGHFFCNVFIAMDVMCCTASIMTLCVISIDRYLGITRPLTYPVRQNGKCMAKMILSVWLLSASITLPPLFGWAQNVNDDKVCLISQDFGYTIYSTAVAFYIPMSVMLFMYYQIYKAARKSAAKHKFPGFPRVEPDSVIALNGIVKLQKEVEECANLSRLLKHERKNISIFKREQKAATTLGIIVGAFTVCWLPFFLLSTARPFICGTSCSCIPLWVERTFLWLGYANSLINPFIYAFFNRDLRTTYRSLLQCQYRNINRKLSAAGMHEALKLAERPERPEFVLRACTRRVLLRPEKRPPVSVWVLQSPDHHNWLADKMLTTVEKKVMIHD

Chain of Muscarinic acetylcholine receptor M5 (Homo sapiens) (P08912 whole entry): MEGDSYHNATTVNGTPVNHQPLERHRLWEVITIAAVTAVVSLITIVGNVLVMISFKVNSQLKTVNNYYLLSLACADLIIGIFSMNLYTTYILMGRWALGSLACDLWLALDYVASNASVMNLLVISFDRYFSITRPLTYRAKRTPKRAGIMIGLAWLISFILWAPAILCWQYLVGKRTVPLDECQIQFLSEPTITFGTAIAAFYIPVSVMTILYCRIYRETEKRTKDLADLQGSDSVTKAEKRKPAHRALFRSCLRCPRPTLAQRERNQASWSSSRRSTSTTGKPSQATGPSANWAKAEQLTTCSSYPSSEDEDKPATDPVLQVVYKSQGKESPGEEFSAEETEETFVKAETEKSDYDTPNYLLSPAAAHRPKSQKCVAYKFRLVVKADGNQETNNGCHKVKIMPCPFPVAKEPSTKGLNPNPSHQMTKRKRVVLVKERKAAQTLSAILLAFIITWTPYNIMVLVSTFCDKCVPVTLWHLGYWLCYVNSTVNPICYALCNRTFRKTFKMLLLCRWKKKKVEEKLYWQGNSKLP
Chain of Tyrosine-protein kinase Lyn (Homo sapiens) (P07948 2-512 limits assumed): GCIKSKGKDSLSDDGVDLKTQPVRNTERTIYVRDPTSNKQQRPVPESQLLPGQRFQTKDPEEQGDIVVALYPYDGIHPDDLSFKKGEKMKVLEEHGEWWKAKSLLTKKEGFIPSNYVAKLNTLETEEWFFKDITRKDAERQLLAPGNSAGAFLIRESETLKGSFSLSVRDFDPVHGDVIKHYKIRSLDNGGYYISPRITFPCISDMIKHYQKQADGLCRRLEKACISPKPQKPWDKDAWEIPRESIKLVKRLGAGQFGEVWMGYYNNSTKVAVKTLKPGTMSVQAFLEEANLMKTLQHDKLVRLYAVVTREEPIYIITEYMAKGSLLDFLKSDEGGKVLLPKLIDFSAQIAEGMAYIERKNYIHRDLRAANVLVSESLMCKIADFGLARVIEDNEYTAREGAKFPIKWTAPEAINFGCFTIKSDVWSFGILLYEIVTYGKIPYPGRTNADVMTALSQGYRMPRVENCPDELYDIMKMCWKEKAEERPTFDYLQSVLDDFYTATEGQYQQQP
Chain of Ephrin type-B receptor 6 (Homo sapiens) (O15197 whole entry): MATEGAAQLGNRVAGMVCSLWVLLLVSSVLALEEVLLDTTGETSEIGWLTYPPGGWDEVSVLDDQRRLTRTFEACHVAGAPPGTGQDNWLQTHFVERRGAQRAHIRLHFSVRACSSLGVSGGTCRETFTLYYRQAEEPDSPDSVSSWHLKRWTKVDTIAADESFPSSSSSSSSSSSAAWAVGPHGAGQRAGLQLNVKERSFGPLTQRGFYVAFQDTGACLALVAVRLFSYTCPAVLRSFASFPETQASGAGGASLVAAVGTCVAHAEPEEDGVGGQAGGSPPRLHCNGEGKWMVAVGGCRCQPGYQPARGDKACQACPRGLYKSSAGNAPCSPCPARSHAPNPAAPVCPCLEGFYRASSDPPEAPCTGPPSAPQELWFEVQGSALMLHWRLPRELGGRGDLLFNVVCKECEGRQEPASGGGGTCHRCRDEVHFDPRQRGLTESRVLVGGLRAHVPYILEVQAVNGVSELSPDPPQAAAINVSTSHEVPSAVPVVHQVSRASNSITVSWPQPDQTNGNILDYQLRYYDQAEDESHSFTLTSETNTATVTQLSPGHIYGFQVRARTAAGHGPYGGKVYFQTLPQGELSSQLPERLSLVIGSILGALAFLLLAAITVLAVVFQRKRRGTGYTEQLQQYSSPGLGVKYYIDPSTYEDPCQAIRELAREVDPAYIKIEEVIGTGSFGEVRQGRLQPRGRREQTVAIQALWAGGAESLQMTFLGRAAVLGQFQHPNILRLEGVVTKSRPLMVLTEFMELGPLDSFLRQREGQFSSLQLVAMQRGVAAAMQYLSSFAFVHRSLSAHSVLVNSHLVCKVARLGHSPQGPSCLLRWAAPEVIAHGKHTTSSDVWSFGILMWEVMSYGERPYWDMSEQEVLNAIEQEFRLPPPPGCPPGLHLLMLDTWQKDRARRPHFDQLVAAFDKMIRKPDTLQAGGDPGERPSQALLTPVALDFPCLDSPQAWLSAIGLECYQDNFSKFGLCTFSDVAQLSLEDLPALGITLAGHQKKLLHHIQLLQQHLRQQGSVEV
Chain of Insulin-like growth factor 1 receptor (Homo sapiens) (P08069 31-736 limits assumed): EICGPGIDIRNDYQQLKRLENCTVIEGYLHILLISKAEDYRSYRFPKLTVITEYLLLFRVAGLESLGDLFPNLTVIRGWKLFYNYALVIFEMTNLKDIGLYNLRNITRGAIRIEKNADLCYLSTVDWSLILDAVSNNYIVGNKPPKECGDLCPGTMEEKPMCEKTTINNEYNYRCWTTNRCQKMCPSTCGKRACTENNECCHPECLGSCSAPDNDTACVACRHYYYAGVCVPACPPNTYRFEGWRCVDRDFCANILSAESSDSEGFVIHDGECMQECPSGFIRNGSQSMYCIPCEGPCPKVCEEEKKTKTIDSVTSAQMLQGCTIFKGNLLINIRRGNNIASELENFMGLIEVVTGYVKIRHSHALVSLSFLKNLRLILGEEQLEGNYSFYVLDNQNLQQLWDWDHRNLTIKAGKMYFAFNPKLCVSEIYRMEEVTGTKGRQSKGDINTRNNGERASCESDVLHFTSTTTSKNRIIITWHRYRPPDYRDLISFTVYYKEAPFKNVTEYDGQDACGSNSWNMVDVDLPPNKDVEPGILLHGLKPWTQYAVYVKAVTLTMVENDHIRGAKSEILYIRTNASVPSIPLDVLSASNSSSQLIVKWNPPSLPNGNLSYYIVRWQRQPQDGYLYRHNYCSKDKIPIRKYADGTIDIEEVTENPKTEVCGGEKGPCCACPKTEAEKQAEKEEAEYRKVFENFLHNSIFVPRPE
Chain of Insulin-like growth factor 1 receptor (Homo sapiens) (P08069 741-1367 limits assumed): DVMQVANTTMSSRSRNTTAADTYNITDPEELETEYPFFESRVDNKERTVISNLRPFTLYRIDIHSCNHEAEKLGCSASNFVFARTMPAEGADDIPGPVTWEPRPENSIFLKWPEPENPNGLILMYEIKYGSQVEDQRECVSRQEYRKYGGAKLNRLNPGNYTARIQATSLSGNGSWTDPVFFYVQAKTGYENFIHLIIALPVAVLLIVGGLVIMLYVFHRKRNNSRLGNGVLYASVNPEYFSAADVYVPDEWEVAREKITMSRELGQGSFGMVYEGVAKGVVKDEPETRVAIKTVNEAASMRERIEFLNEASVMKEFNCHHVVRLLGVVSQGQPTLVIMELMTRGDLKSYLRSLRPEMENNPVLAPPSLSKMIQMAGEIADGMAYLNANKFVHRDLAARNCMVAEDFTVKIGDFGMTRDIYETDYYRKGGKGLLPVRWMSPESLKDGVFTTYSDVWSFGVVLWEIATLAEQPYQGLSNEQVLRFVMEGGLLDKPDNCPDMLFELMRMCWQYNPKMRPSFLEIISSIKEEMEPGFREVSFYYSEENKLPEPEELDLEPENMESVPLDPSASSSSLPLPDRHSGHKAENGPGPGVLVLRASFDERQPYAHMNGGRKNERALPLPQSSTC
Chain of Phosphatidylinositol 4,5-bisphosphate 3-kinase catalytic subunit delta isoform (Homo sapiens) (O00329 whole entry, canonical isoform): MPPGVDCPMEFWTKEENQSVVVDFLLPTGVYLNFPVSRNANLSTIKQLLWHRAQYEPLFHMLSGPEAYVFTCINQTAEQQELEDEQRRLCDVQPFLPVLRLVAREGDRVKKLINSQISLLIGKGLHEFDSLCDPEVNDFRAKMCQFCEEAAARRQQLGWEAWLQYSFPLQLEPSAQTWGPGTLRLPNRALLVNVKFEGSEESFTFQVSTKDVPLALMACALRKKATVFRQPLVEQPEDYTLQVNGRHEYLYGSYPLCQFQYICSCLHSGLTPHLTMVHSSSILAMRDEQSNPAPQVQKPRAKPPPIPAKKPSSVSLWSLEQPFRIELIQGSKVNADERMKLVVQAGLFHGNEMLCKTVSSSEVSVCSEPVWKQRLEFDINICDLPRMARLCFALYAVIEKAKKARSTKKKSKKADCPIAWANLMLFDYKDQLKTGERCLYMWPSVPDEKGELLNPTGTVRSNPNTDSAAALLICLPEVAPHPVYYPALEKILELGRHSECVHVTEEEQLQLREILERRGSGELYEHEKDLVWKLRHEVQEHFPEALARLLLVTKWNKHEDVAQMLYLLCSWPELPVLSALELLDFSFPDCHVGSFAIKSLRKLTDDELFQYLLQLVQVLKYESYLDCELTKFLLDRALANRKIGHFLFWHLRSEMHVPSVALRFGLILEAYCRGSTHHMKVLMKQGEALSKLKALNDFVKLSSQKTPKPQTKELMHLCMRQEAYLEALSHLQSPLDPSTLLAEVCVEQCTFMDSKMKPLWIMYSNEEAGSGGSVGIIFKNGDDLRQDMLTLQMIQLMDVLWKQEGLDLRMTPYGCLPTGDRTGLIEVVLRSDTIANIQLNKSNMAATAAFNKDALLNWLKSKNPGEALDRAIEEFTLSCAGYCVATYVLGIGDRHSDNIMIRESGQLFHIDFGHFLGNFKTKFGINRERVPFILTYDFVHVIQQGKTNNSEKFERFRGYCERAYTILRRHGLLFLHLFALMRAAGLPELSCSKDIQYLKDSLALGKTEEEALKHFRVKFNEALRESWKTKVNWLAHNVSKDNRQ

CN([C@@H]1CCc2c(CC(=O)O)c3cc(S(C)(=O)=O)ccc3n2C1)S(=O)(=O)c1ccc(F)cc1
inactive: residual activity [1] 99% | residual activity [2] 93% | residual activity [3] 98% | residual activity [4] 100% | residual activity [5] 100% | residual activity [6] 100% | residual activity [7] 100% | residual activity [8] 96% | residual activity [9] 92% | residual activity [10] 100% | inhibition [11] -6.18% | residual activity [12] 78% | residual activity [13] 87% | residual activity [14] 91% | residual activity [15] 100% | residual activity [16] 100% | residual activity [17] 100% | residual activity [18] 79% | residual activity [19] 78% | residual activity [20] 100% | residual activity [21] 85% | residual activity [22] 100% | residual activity [23] 86% | residual activity [24] 100% | residual activity [25] 100% | residual activity [26] 100% | residual activity [27] 65% | residual activity [28] 100% | inhibition [29] 7.27% | residual activity [30] 99% | residual activity [31] 83% | residual activity [32] 87% | residual activity [33] 100% | residual activity [34] 100% | residual activity [35] 100% | residual activity [36] 100% | residual activity [37] 100% | residual activity [38] 71% | residual activity [39] 100% | residual activity [40] 93% | residual activity [41] 93% | residual activity [42] 82% | residual activity [43] 93% | residual activity [44] 98% | inhibition [45] -3.44%

CN([C@@H]1CCc2c(CC(=O)O)c3ccccc3n2C1)S(=O)(=O)c1ccc(F)cc1 [MK-7246]
inactive: residual activity [1] 96% | residual activity [2] 100% | residual activity [3] 100% | residual activity [4] 100% | residual activity [5] 90% | residual activity [6] 100% | residual activity [7] 98% | residual activity [8] 100% | residual activity [9] 96% | residual activity [10] 100% | inhibition [11] 6.97% | residual activity [12] 100% | residual activity [13] 82% | residual activity [14] 100% | residual activity [15] 100% | residual activity [16] 100% | residual activity [17] 95% | residual activity [18] 100% | residual activity [19] 99% | residual activity [20] 85% | residual activity [21] 95% | residual activity [22] 100% | residual activity [23] 97% | residual activity [24] 91% | residual activity [25] 100% | residual activity [26] 100% | residual activity [27] 82% | residual activity [28] 100% | inhibition [29] -6.57% | residual activity [30] 100% | residual activity [31] 100% | residual activity [32] 85% | residual activity [33] 100% | residual activity [34] 100% | residual activity [35] 100% | residual activity [36] 100% | residual activity [37] 100% | residual activity [38] 78% | residual activity [39] 100% | residual activity [40] 100% | residual activity [41] 99% | residual activity [42] 83% | residual activity [43] 100% | residual activity [44] 100% | inhibition [45] 4.11%
